Experimental findings from patent US8088763B2 (priority 2004, dated 2012) are described below.

The target of one assay is T1, 5HT-uptake (Rattus norvegicus, UniProt P31652).
T1 construct: synaptosomes were freshly isolated from areas of rats' brains
Put plainly: biochemical. The settings on record: for inhibition at 10 µM: read-out: 5HT-uptake [10 μM], % inhibition.

Another assay deals with NA-uptake (Rattus norvegicus, UniProt Q63380). Put plainly: biochemical. The settings on record: for inhibition at 10 µM: read-out: NA-uptake [10 μM], % inhibition.
NA-uptake, sequence (Q63380 1-617): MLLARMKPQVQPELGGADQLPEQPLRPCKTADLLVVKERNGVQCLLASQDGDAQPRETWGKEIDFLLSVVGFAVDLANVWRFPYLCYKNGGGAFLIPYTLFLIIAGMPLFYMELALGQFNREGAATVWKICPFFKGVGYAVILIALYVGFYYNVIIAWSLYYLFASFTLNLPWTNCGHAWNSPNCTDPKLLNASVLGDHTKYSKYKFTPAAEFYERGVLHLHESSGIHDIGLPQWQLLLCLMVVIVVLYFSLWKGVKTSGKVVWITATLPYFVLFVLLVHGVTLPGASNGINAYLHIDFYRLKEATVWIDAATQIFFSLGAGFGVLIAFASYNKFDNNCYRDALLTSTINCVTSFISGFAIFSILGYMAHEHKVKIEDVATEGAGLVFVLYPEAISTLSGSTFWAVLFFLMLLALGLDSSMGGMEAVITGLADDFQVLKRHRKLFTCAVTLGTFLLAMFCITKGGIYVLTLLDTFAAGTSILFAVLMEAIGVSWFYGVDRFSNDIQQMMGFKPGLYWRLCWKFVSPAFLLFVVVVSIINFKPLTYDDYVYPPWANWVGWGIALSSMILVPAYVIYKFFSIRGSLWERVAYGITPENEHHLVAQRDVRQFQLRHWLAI

T1 sequence (P31652 whole entry): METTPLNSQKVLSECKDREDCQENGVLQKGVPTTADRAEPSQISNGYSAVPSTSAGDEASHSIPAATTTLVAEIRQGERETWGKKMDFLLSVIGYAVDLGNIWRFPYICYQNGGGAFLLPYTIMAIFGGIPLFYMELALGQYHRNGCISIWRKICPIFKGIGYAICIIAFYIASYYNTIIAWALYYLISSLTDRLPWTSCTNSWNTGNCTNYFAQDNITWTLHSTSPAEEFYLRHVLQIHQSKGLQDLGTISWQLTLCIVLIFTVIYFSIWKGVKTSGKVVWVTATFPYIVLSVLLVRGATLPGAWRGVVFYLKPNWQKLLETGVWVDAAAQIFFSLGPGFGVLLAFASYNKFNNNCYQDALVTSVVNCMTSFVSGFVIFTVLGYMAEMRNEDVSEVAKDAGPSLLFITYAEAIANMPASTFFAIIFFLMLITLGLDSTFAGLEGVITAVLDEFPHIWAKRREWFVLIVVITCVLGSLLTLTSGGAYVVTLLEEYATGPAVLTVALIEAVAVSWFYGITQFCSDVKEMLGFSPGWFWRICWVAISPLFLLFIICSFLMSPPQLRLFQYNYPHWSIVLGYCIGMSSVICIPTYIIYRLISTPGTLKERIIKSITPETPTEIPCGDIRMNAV

In the case of `CN(C)C1(Cc2ccc(Cl)cc2)CCC(NC(=O)CCC(=O)NC2CCCC2)CC1` (centres unmarked) [Example 44, N-[4-(4-chloro-benzyl)-4-dimethylamino-cyclohexyl]-Nt-cyclopentyl-succinamide], the “5HT-uptake [10 μM], % inhibition” value at 5HT-uptake is reported as 94%. Besides, on NA-uptake, the “NA-uptake [10 μM], % inhibition” value turned out to be 84%.

With `Cc1ccc(CC2(N(C)C)CCC(NC(=O)CCC(=O)N3CCN(C(=O)OC(C)(C)C)CC3)CC2)cc1` (centres unmarked) [Example 28, 4-{3-[4-dimethylamino-4-(4-methyl-benzyl)-cyclohexylcarbamoyl]-propionyl}-piperazin-1-carboxylic acid-tert-butylester], the values for the inhibition at 10 µM on 5HT-uptake and at NA-uptake were 92% and 81%, respectively.

For `Cc1ccc(CC2(N(C)C)CCC(NC(=O)CCC(=O)N3CCN(c4ccccn4)CC3)CC2)cc1` (centres unmarked) [Example 21, N-[4-dimethylamino-4-(4-methyl-benzyl)-cyclohexyl]-4-oxo-4-(4-pyridin-2-yl-piperazin-1-yl)-butyramide], the inhibition at 10 µM was 95% on 5HT-uptake and 83% on NA-uptake.

In the case of `COc1ccc(CN2CCN(C(=O)CCC(=O)NC3CCC(Cc4cccc(C)c4)(N(C)C)CC3)CC2)cc1F` (centres unmarked) [Example 35, N-[4-dimethylamino-4-(3-methyl-benzyl)-cyclohexyl]-4-[4-(3-fluoro-4-methoxy-benzyl)-piperazin-1-yl]-4-oxo-butyramide], the inhibition at 10 µM was 94% at 5HT-uptake and 95% on NA-uptake.

`COc1ccc(NC(=O)CCC(=O)NC2CCC(Cc3cccc(C)c3)(N(C)C)CC2)cc1` (centres unmarked) [Example 75, N-[4-dimethylamino-4-(3-methyl-benzyl)-cyclohexyl]-N′-(4-methoxy-phenyl)-succinamide]: the inhibition at 10 µM was found to be 97% at 5HT-uptake and 99% on NA-uptake.

With `Cc1cccc(CC2(N(C)C)CCC(NC(=O)CCC(=O)NC(C)c3ccc4ccccc4c3)CC2)c1` (centres unmarked) [Example 122, N-[4-dimethylamino-4-(3-methyl-benzyl)-cyclohexyl]-N′-(1-naphthalen-2-yl-ethyl)-succinamide], the inhibition at 10 µM on 5HT-uptake was 93%; at NA-uptake it was 102%.

With `CCN(Cc1ccncc1)C(=O)CCC(=O)NC1CCC(Cc2ccc(Cl)cc2)(N(C)C)CC1` (centres unmarked) [Example 70, N-[4-(4-chloro-benzyl)-4-dimethylamino-cyclohexyl]-N′-ethyl-N′-pyridin-4-ylmethyl-succinamide], the inhibition at 10 µM on 5HT-uptake is 93%; on NA-uptake, 96%.

One may read the inhibition as the relative decrease from the control value, in per cent.
